Data published in patent US20250223268A1, “4-Methylsulfonylbenzamide Compound, Preparation Method, Herbicidal Composition And Use” (Jiangsu Flag Chemical Industry Co., Ltd., priority 2022, published 2025).

Legend:
Type in all cases: in vivo
Echinochloa crusgalli [1] = test: Greenhouse herbicidal activity assay, post-emergence; conditions: Post-emergence test, rate 150 g a.i./hm^2, grade by fresh weight inhibition rate
How it was run: (§1)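 Scores reflect fresh weight inhibition assessed 14-21 days after treatment, with grade A meaning ≥80% to 100% and grade E meaning <20%. Plants, raised in nutrient-soil pots inside a growth chamber, were sprayed on the foliage at the 3-6 leaf stage.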

Cyperus iria = test: as above; conditions: Post-emergence test, rate 150 g a.i./hm^2, grade by fresh weight inhibition rate
How it was run: as §1

Eclipta prostrata = test: as above; conditions: Post-emergence test, rate 150 g a.i./hm^2, grade by fresh weight inhibition rate
How it was run: as §1

Digitaria sanguinalis = test: as above; conditions: Post-emergence test, rate 150 g a.i./hm^2, grade by fresh weight inhibition rate
How it was run: as §1

Leptochloa chinensis [2] = test: as above; conditions: Post-emergence test, rate 150 g a.i./hm^2, grade by fresh weight inhibition rate
How it was run: as §1

Echinochloa crusgalli [3] = test: Greenhouse herbicidal activity and crop safety comparison (Test Example 2)
How it was run: (§2)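 Fresh weight inhibition, banded into grades A to E (E <20%), was rated 14-21 days after foliar spraying of 3-6 leaf plants, or 14-30 days after a soil spray applied 24 h post-sowing.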

[4] = test system: Oryza sativa subsp. japonica; test: as above
How it was run: as §2

Leptochloa chinensis [5] = test: as above
How it was run: as §2

[6] = test system: Oryza sativa subsp. indica; test: as above
How it was run: as §2

## CCC(C)S(=O)(=O)c1c(S(C)(=O)=O)ccc(C(=O)Nc2nnc(C)o2)c1Cl (racemic) [Compound 3-24]
Echinochloa crusgalli [1]
  Control efficacy grade, Echinochloa crusgalli: A (Fresh weight inhibition rate≥80% to 100%)
Cyperus iria
  Control efficacy grade, Cyperus iria: A (Fresh weight inhibition rate≥80% to 100%)
Eclipta prostrata
  Control efficacy grade, Eclipta prostrata: A (Fresh weight inhibition rate≥80% to 100%)
Digitaria sanguinalis
  Control efficacy grade, Digitaria sanguinalis: A (Fresh weight inhibition rate≥80% to 100%)
Leptochloa chinensis [2]
  Control efficacy grade, Leptochloa chinensis: A (Fresh weight inhibition rate≥80% to 100%)
Echinochloa crusgalli [3]; Rate 150 g/ha
  Echinochloa crusgalli, control efficacy grading (fresh weight inhibition rate): A (Fresh weight inhibition rate≥80% to 100%)
[4]; Rate 150 g/ha
  Oryza sativa subsp. japonica, grading of fresh weight inhibition rate (crop safety): E (Fresh weight inhibition rate<20%)
Leptochloa chinensis [5]; Rate 150 g/ha
  Leptochloa chinensis, control efficacy grading (fresh weight inhibition rate): A (Fresh weight inhibition rate≥80% to 100%)
[6]; Rate 150 g/ha
  Oryza sativa subsp. indica, grading of fresh weight inhibition rate (crop safety): E (Fresh weight inhibition rate<20%)

## CCc1nnc(NC(=O)c2ccc(S(C)(=O)=O)c(S(=O)(=O)CC3CC3)c2Cl)o1 [Compound 3-418]
Echinochloa crusgalli [1]
  Control efficacy grade, Echinochloa crusgalli: A (Fresh weight inhibition rate≥80% to 100%)
Cyperus iria
  Control efficacy grade, Cyperus iria: A (Fresh weight inhibition rate≥80% to 100%)
Eclipta prostrata
  Control efficacy grade, Eclipta prostrata: A (Fresh weight inhibition rate≥80% to 100%)
Digitaria sanguinalis
  Control efficacy grade, Digitaria sanguinalis: A (Fresh weight inhibition rate≥80% to 100%)
Leptochloa chinensis [2]
  Control efficacy grade, Leptochloa chinensis: A (Fresh weight inhibition rate≥80% to 100%)
Echinochloa crusgalli [3]; Rate 150 g/ha
  Echinochloa crusgalli, control efficacy grading (fresh weight inhibition rate): A (Fresh weight inhibition rate≥80% to 100%)
[4]; Rate 150 g/ha
  Oryza sativa subsp. japonica, grading of fresh weight inhibition rate (crop safety): E (Fresh weight inhibition rate<20%)
Leptochloa chinensis [5]; Rate 150 g/ha
  Leptochloa chinensis, control efficacy grading (fresh weight inhibition rate): A (Fresh weight inhibition rate≥80% to 100%)
[6]; Rate 150 g/ha
  Oryza sativa subsp. indica, grading of fresh weight inhibition rate (crop safety): E (Fresh weight inhibition rate<20%)

## CCCS(=O)(=O)c1c(S(C)(=O)=O)ccc(C(=O)Nc2nnc(C(C)C)o2)c1Cl [Compound 3-503, 2-chloro-N-(5-isopropyl-1,3,4-oxadiazol-2-yl)-4-(methylsulfonyl)-3-(propylsulfonyl)benzamide]
Echinochloa crusgalli [1]; Echinochloa crus-galli, read-out: Control efficacy grade, Echinochloa crusgalli
  pest or weed control at 150 g/ha: 80 to 100%
Cyperus iria; Cyperus iria, read-out: Control efficacy grade, Cyperus iria
  pest or weed control at 150 g/ha: 80 to 100%
Eclipta prostrata; Eclipta prostrata, read-out: Control efficacy grade, Eclipta prostrata
  pest or weed control at 150 g/ha: 80 to 100%
Digitaria sanguinalis; Digitaria sanguinalis, read-out: Control efficacy grade, Digitaria sanguinalis
  pest or weed control at 150 g/ha: 80 to 100%
Leptochloa chinensis [2]; Dinebra chinensis, read-out: Control efficacy grade, Leptochloa chinensis
  pest or weed control at 150 g/ha: 80 to 100%
Echinochloa crusgalli [3]; Echinochloa crus-galli, Rate 150 g/ha, read-out: Echinochloa crusgalli, control efficacy grading (fresh weight inhibition rate)
  inhibition at 150 g/ha: 80 to 100%
[4]; Rate 150 g/ha
  Oryza sativa subsp. japonica, grading of fresh weight inhibition rate (crop safety): E (Fresh weight inhibition rate<20%)
Leptochloa chinensis [5]; Dinebra chinensis, Rate 150 g/ha, read-out: Leptochloa chinensis, control efficacy grading (fresh weight inhibition rate)
  inhibition at 150 g/ha: 80 to 100%
[6]; Rate 150 g/ha
  Oryza sativa subsp. indica, grading of fresh weight inhibition rate (crop safety): E (Fresh weight inhibition rate<20%)

## CC(C)S(=O)(=O)c1c(S(C)(=O)=O)ccc(C(=O)Nc2nnco2)c1Cl [Compound 3-276]
Echinochloa crusgalli [1]
  Control efficacy grade, Echinochloa crusgalli: A (Fresh weight inhibition rate≥80% to 100%)
Cyperus iria
  Control efficacy grade, Cyperus iria: A (Fresh weight inhibition rate≥80% to 100%)
Eclipta prostrata
  Control efficacy grade, Eclipta prostrata: A (Fresh weight inhibition rate≥80% to 100%)
Digitaria sanguinalis
  Control efficacy grade, Digitaria sanguinalis: A (Fresh weight inhibition rate≥80% to 100%)
Leptochloa chinensis [2]
  Control efficacy grade, Leptochloa chinensis: A (Fresh weight inhibition rate≥80% to 100%)
Echinochloa crusgalli [3]; Rate 150 g/ha
  Echinochloa crusgalli, control efficacy grading (fresh weight inhibition rate): A (Fresh weight inhibition rate≥80% to 100%)
[4]; Rate 150 g/ha
  Oryza sativa subsp. japonica, grading of fresh weight inhibition rate (crop safety): E (Fresh weight inhibition rate<20%)
Leptochloa chinensis [5]; Rate 150 g/ha
  Leptochloa chinensis, control efficacy grading (fresh weight inhibition rate): A (Fresh weight inhibition rate≥80% to 100%)
[6]; Rate 150 g/ha
  Oryza sativa subsp. indica, grading of fresh weight inhibition rate (crop safety): E (Fresh weight inhibition rate<20%)

## CCc1nnc(NC(=O)c2ccc(S(C)(=O)=O)c(S(=O)(=O)C(C)CC)c2Cl)o1 (racemic) [Compound 3-406]
Echinochloa crusgalli [1]
  Control efficacy grade, Echinochloa crusgalli: A (Fresh weight inhibition rate≥80% to 100%)
Cyperus iria
  Control efficacy grade, Cyperus iria: A (Fresh weight inhibition rate≥80% to 100%)
Eclipta prostrata
  Control efficacy grade, Eclipta prostrata: A (Fresh weight inhibition rate≥80% to 100%)
Digitaria sanguinalis
  Control efficacy grade, Digitaria sanguinalis: A (Fresh weight inhibition rate≥80% to 100%)
Leptochloa chinensis [2]
  Control efficacy grade, Leptochloa chinensis: A (Fresh weight inhibition rate≥80% to 100%)
Echinochloa crusgalli [3]; Rate 150 g/ha
  Echinochloa crusgalli, control efficacy grading (fresh weight inhibition rate): A (Fresh weight inhibition rate≥80% to 100%)
[4]; Rate 150 g/ha
  Oryza sativa subsp. japonica, grading of fresh weight inhibition rate (crop safety): E (Fresh weight inhibition rate<20%)
Leptochloa chinensis [5]; Rate 150 g/ha
  Leptochloa chinensis, control efficacy grading (fresh weight inhibition rate): A (Fresh weight inhibition rate≥80% to 100%)
[6]; Rate 150 g/ha
  Oryza sativa subsp. indica, grading of fresh weight inhibition rate (crop safety): E (Fresh weight inhibition rate<20%)

## CCCCS(=O)(=O)c1c(S(C)(=O)=O)ccc(C(=O)Nc2nnc(C)o2)c1Cl [Compound 3-15]
Echinochloa crusgalli [1]
  Control efficacy grade, Echinochloa crusgalli: B (Fresh weight inhibition rate≥260% to <80%)
Cyperus iria
  Control efficacy grade, Cyperus iria: B (Fresh weight inhibition rate≥260% to <80%)
Eclipta prostrata
  Control efficacy grade, Eclipta prostrata: A (Fresh weight inhibition rate≥80% to 100%)
Digitaria sanguinalis
  Control efficacy grade, Digitaria sanguinalis: B (Fresh weight inhibition rate≥260% to <80%)
Leptochloa chinensis [2]
  Control efficacy grade, Leptochloa chinensis: B (Fresh weight inhibition rate≥260% to <80%)
Echinochloa crusgalli [3]; Rate 250 g/ha
  Echinochloa crusgalli, control efficacy grading (fresh weight inhibition rate): A (Fresh weight inhibition rate≥80% to 100%)
[4]; Rate 250 g/ha
  Oryza sativa subsp. japonica, grading of fresh weight inhibition rate (crop safety): E (Fresh weight inhibition rate<20%)
Leptochloa chinensis [5]; Rate 250 g/ha
  Leptochloa chinensis, control efficacy grading (fresh weight inhibition rate): A (Fresh weight inhibition rate≥80% to 100%)
[6]; Rate 250 g/ha
  Oryza sativa subsp. indica, grading of fresh weight inhibition rate (crop safety): E (Fresh weight inhibition rate<20%)

## CS(=O)(=O)c1ccc(C(=O)Nc2nnc(C3CC3)o2)c(Cl)c1S(=O)(=O)C1CC1 [Compound 3-655]
Echinochloa crusgalli [1]
  Control efficacy grade, Echinochloa crusgalli: A (Fresh weight inhibition rate≥80% to 100%)
Cyperus iria
  Control efficacy grade, Cyperus iria: A (Fresh weight inhibition rate≥80% to 100%)
Eclipta prostrata
  Control efficacy grade, Eclipta prostrata: A (Fresh weight inhibition rate≥80% to 100%)
Digitaria sanguinalis
  Control efficacy grade, Digitaria sanguinalis: A (Fresh weight inhibition rate≥80% to 100%)
Leptochloa chinensis [2]
  Control efficacy grade, Leptochloa chinensis: A (Fresh weight inhibition rate≥80% to 100%)
Echinochloa crusgalli [3]; Rate 150 g/ha
  Echinochloa crusgalli, control efficacy grading (fresh weight inhibition rate): A (Fresh weight inhibition rate≥80% to 100%)
[4]; Rate 150 g/ha
  Oryza sativa subsp. japonica, grading of fresh weight inhibition rate (crop safety): E (Fresh weight inhibition rate<20%)
Leptochloa chinensis [5]; Rate 150 g/ha
  Leptochloa chinensis, control efficacy grading (fresh weight inhibition rate): A (Fresh weight inhibition rate≥80% to 100%)
[6]; Rate 150 g/ha
  Oryza sativa subsp. indica, grading of fresh weight inhibition rate (crop safety): E (Fresh weight inhibition rate<20%)

## Cc1nnc(NC(=O)c2ccc(S(C)(=O)=O)c(S(=O)(=O)CC(F)(F)F)c2Cl)o1 [Compound 3-101]
Echinochloa crusgalli [1]
  Control efficacy grade, Echinochloa crusgalli: A (Fresh weight inhibition rate≥80% to 100%)
Cyperus iria
  Control efficacy grade, Cyperus iria: A (Fresh weight inhibition rate≥80% to 100%)
Eclipta prostrata
  Control efficacy grade, Eclipta prostrata: A (Fresh weight inhibition rate≥80% to 100%)
Digitaria sanguinalis
  Control efficacy grade, Digitaria sanguinalis: A (Fresh weight inhibition rate≥80% to 100%)
Leptochloa chinensis [2]
  Control efficacy grade, Leptochloa chinensis: A (Fresh weight inhibition rate≥80% to 100%)
Echinochloa crusgalli [3]; Rate 150 g/ha
  Echinochloa crusgalli, control efficacy grading (fresh weight inhibition rate): A (Fresh weight inhibition rate≥80% to 100%)
[4]; Rate 150 g/ha
  Oryza sativa subsp. japonica, grading of fresh weight inhibition rate (crop safety): E (Fresh weight inhibition rate<20%)
Leptochloa chinensis [5]; Rate 150 g/ha
  Leptochloa chinensis, control efficacy grading (fresh weight inhibition rate): A (Fresh weight inhibition rate≥80% to 100%)
[6]; Rate 150 g/ha
  Oryza sativa subsp. indica, grading of fresh weight inhibition rate (crop safety): E (Fresh weight inhibition rate<20%)

## C=CCS(=O)(=O)c1c(S(C)(=O)=O)ccc(C(=O)Nc2nnco2)c1Cl [Compound 3-342]
Echinochloa crusgalli [1]
  Control efficacy grade, Echinochloa crusgalli: A (Fresh weight inhibition rate≥80% to 100%)
Cyperus iria
  Control efficacy grade, Cyperus iria: A (Fresh weight inhibition rate≥80% to 100%)
Eclipta prostrata
  Control efficacy grade, Eclipta prostrata: A (Fresh weight inhibition rate≥80% to 100%)
Digitaria sanguinalis
  Control efficacy grade, Digitaria sanguinalis: A (Fresh weight inhibition rate≥80% to 100%)
Leptochloa chinensis [2]
  Control efficacy grade, Leptochloa chinensis: A (Fresh weight inhibition rate≥80% to 100%)
Echinochloa crusgalli [3]; Rate 150 g/ha
  Echinochloa crusgalli, control efficacy grading (fresh weight inhibition rate): A (Fresh weight inhibition rate≥80% to 100%)
[4]; Rate 150 g/ha
  Oryza sativa subsp. japonica, grading of fresh weight inhibition rate (crop safety): E (Fresh weight inhibition rate<20%)
Leptochloa chinensis [5]; Rate 150 g/ha
  Leptochloa chinensis, control efficacy grading (fresh weight inhibition rate): A (Fresh weight inhibition rate≥80% to 100%)
[6]; Rate 150 g/ha
  Oryza sativa subsp. indica, grading of fresh weight inhibition rate (crop safety): E (Fresh weight inhibition rate<20%)
